Results taken from patent publication US20140230081A1, “POLYNUCLEOTIDE, POLYPEPTIDE, ANIMAL MODEL AND METHOD FOR THE DEVELOPMENT OF COMPLEMENT SYSTEM MODULATORS” (BAYER INTELLECTUAL PROPERTY GMBH, priority 2011, published 2014).
“And” between values parts separate entries of the source, which are not always exact repeats. Identical values can stand only once. Like-named read-outs stand apart in the source and are kept apart here.

What was measured:
[1] = system: porcine-to-human xenograft; conditions: perfused with human blood; cited from earlier work
complement activation [2] = conditions: cited from earlier work
complement activation [3] = conditions: cited from earlier work; remark: listed apart in the source
C5aR [4] = conditions: cynomolgus monkey neutrophils; cited from earlier work
white blood cell counts = assay: CLP model in hamster, hemogram (white blood cell counts of EDTA whole blood); type: in vivo, Syrian Hamster; conditions: CLP+0.5 mg/kg, CLP+2.5 mg/kg and CLP+Alzet compared to CLP+vehicle; FIG. 24
Method: Blood samples were obtained under light Isoflurane anesthesia from the cavernous sinus with a capillary at different time points/final exsanguination by cannulation of the carotid artery after 24 hr to allow measurements of differential blood counts. Blood samples for basal blood cell counts were collected from the cavernous sinus one week before study begin. Blood was collected into EDTA tubes and blood cell counts were performed on an automated cell counter.
(§1) Midline incision was made in the Linea Alba of the peritoneal cavity and the cecum was exposed. 50% of the cecum was tied off by placing a tight ligature around the cecum. For the CLP model two puncture wounds were made with an 18-gauge needle into the cecum and small amounts of cecal contents were expressed through the wounds, situs was flushed with 0.5 mL sterile saline. Finally, the cecum was replaced into the peritoneal cavity and the laparotomy site was closed. The sham group underwent abdominal surgery; the cecum was exposed and replaced without ligation or puncture of the cecum. Situs was flushed with 0.5 mL sterile saline and the laparotomy site was closed.
C5aR Antagonist was dissolved in DMSO and diluted with sterile saline solution. The final solution contained 5% DMSO. […] The study medication was given s.c. 30 min before and 2 h after CLP surgery. […]

IL10 expression = assay: CLP model in hamster, IL10 expression in tissues (TaqMan RT-PCR); type: in vivo, Syrian Hamster; conditions: CLP+0.5 mg/kg, CLP+2.5 mg/kg and CLP+Alzet vs. CLP+vehicle, dose dependently
Method: (§2) Hamster tissues were pulverized by grinding with liquid nitrogen. Total RNA was extracted, DNase I digestion was performed to remove residual genomic DNA and the RNA were reverse transcribed using random hexamer primers. Quantitative TaqMan RT-PCR analysis was performed using the Applied Biosystems PRISM 7900 sequence detection system. The thermal protocol was set to 2 min at 50° C., followed by 10 min at 95° C. and by 40 cycles of 15 s at 95° C. and 1 min at 60° C. Results were normalized to L32 controls, and relative expression was calculated according to the following formula: relative expression=2̂(15−(CT(probe)−CT(L32))). The parameter CT is defined as the cycle number at which the amplification plot passes a fixed threshold above baseline.
as §1
C5aR Antagonist was dissolved in DMSO and diluted with sterile saline solution. The final solution contained 5% DMSO. […]
(§3) Total RNA was isolated from hamster tissues with the Trizol-Reagent protocol according to the manufacturer's specifications (Invitrogen; USA). […] For relative quantitation of the mRNA distribution of IL10, IL6 and IL1b, total RNA from each sample was first reverse transcribed. […] For relative quantitation of the distribution of IL10, IL6 or IL1b mRNA the Applied Biosystems PRISM 7900 sequence detection system was used according to the manufacturer's specifications and protocols. PCR reactions were set up to quantitate IL 10, IL6 or IL1b and the housekeeping gene L32. […]

IL6 expression = assay: CLP model in hamster, IL6 expression in tissues (TaqMan RT-PCR); type: in vivo, Syrian Hamster; conditions: CLP+0.5 mg/kg, CLP+2.5 mg/kg and CLP+Alzet vs. CLP+vehicle, dose dependently
Method: as §2, with “baseline. […]” for “baseline.”
as §3

hamster C5aR1 [5] = assay: Receptor activation of hamster C5aR1, reduction by antagonist; type: cell-based; conditions: activated by human C5a ligand
IL1b expression = assay: CLP model in hamster, IL1b expression in tissues (TaqMan RT-PCR); type: in vivo, Syrian Hamster; conditions: CLP+0.5 mg/kg, CLP+2.5 mg/kg and CLP+Alzet vs. CLP+vehicle; dose dependently; FIG. 11
Method: as §2, with “baseline. […]” for “baseline.”
as §3

C5aR [6] = conditions: gerbil neutrophils; cited from earlier work
[7] = biological target: hamster C5aR1 polypeptide (hamster); assay: cell-based or functional assay
Chain of hamster C5aR1 polypeptide (hamster) (chain, as listed by the source limits assumed): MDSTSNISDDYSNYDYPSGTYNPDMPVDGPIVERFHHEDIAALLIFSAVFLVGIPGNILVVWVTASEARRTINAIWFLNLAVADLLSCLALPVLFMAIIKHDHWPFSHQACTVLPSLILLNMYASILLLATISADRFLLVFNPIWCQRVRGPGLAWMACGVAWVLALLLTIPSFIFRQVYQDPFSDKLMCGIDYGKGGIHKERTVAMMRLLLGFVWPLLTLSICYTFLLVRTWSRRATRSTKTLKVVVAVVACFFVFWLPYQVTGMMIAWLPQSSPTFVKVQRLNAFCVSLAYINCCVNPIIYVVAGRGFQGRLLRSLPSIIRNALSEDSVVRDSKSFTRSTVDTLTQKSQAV

[8] = system: classical complement pathway; conditions: cited from earlier work
hamster C5aR1 [9] = assay: C5aR1 signalling via Calcium release (luminescence) in CHOmtCly_hamster-C5aR1/Galpha16 cells; type: cell-based; conditions: peptide at 7 μM; three CHOmtCly_hamster-C5aR1/Galpha16 cell lines, respectively; measured for 60 seconds; listed as Bachem peptide 83462
Method: CHO K1 cell lines expressing mitochondrial Clytin (CHOmtCly) were co-transfected with the expression vector pcDNA3 harbouring the cDNA of hamster C5aR1 und pcDNA3-Galpha16 to allow the measurement of C5aR1 signalling via Calcium release (generated cells are named CHOmtCly_hamster-C5aR1/Galpha16). Control cells (CHOmtCly_pcDNA3) were generated by transfection of CHOmtCly cells with a corresponding amount of empty pcDNA3 vector only. In brief, 10^6 cells were transfected with 2 μg DNA by use of the Nucleofector (Amaxxa) program U-27. Transfected cells were seeded in 384-well MTP with a density of 250 cells per well. After 24 h incubation at 37° C. selection media containing a final concentration of 1 mg/ml G418 was added. After one week of selection plates were duplicated and tested for C5aR1 signalling. Cells were loaded with Coelenterazine for 3 h, than buffer or the C-terminal peptide of human C5a (Bachem H3462) was added at a final concentration of 7 μM. Luminescence (RLU) was measured for 60 seconds.
For activity measurement, three CHOmtCly_hamster-C5aR1/Galpha16 cell lines and three CHOmtCly cDNA3 cell lines were analyzed, respectively.
Target sequence in this assay (as listed by the source): as the sequence (chain, as listed by the source limits assumed) above
Target sequence in this assay (P30679 whole entry partner): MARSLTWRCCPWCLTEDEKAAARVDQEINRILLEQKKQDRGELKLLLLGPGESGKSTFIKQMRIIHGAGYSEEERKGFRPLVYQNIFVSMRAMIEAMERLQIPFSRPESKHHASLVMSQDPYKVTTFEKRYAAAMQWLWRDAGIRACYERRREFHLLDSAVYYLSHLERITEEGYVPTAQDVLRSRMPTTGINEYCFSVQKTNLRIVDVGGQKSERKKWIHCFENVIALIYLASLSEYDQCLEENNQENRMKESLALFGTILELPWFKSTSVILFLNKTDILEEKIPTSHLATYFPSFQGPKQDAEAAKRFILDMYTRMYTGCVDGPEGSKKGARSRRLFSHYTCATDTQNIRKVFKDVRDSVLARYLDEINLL

[10] = in vivo; cited from earlier work
[11] = system: complement-mediated tissue injury; conditions: models of ischemia-reperfusion and animal models of human acute and chronic inflammatory diseases; cited from earlier work

## CC[C@H](C)[C@H](N)C(=O)N[C@H]1CSSC[C@@H](C(=O)N[C@H](C(N)=O)[C@@H](C)O)NC(=O)[C@H](CCCN=C(N)N)NC(=O)[C@H](Cc2cnc[nH]2)NC(=O)[C@H](Cc2cnc[nH]2)NC(=O)CNC(=O)[C@H](Cc2c[nH]c3ccccc23)NC(=O)[C@H](CC(=O)O)NC(=O)[C@H](CCC(N)=O)NC(=O)[C@H](C(C)C)NC(=O)[C@H](C(C)C)NC1=O [Compstatin]
[1]
  lifetime of a porcine-to-human xenograft: prolongs
Complement activation [2]
  complement activation in human serum: inhibit
Complement activation [3]; in vivo
  side effects: without significant side effects
Complement activation [3]; primates
  heparine and protamine-induced complement activation: inhibit

## COc1ccc2c(c1)C(C(=O)N(Cc1ccc(N(C)C)cc1)c1ccc(C(C)C)cc1)CCC2.Cl (stereo not drawn) [W-54011]
C5aR [4]
  inhibition of C5a-mediated responses: inhibits
White blood cell counts
  WBC (white blood cell counts): higher
IL10 expression; FIG. 6
  expression of IL10 in kidney tissue: decreased
IL10 expression; FIG. 7
  expression of IL10 in LV (left ventricle) tissue: decreased
IL10 expression; FIG. 8
  expression of IL10 in lung tissue: decreased
IL6 expression; FIG. 9
  expression of IL6 in LV (left ventricle) tissue: decreased
IL6 expression; FIG. 10
  expression of IL6 in lung tissue: decreased
Hamster C5aR1 [5]
  receptor activation of hamster C5aR1: can be reduced
IL1b expression
  expression of IL1b in LV (left ventricle) tissue: decreased
C5aR [6]
  inhibition of C5a-mediated responses: inhibits

## C-terminal peptide of human C5a (Bachem H3462) (from UniProt P01031 742-751)
[7]
  Luminescence (RLU), calcium release via mitochondrial Clytin, peptide at 7 µM, measured for 60 seconds; cell line 1 of 3: 248000 RLU
  Luminescence (RLU), calcium release via mitochondrial Clytin, peptide at 7 µM, measured for 60 seconds; cell line 2 of 3: 243000 RLU
  Luminescence (RLU), calcium release via mitochondrial Clytin, peptide at 7 µM, measured for 60 seconds; cell line 3 of 3: 203000 RLU

## CEGPFGPRHDLTFCW [2J]
[8]
  IC50: 2 to 6 µM

## H3462: C-terminal peptide of human C5a (Bachem H3462) (ISHKDMQLGR)
Hamster C5aR1 [9]
  Luminescence (RLU) on stimulation: 247943 RLU and 243143 RLU and 203151 RLU

## sCR1: soluble version of recombinant human CR1 lacking the transmembrane and cytoplasmic domains
[10]
  half-life in circulation: short
[11]
  complement-mediated tissue injury: reduce
